Test results reported in ChEMBL document CHEMBL1152427, “Antimicrobial natural products as beta-ketoacyl-acyl carrier protein synthase III inhibitors” (Bioorg Med Chem, 2009).
Values after ≈ are worked out from the molar mass of the structure shown.

What was measured:
Staphylococcus aureus [1] = assay: Antibacterial activity against methicillin-resistant Staphylococcus aureus CCARM 3114 after 20 hrs by twofold serial broth dilution method; format: functional; settings: CCARM 3114, 20 h
Enterococcus faecalis [2] = assay: Antibacterial activity against Enterococcus faecalis KCTC 2011 after 20 hrs by twofold serial broth dilution method; format: functional; settings: KCTC 2011, 20 h
Staphylococcus aureus [3] = assay: Antibacterial activity against Staphylococcus aureus KCTC 1621 after 20 hrs by twofold serial broth dilution method; format: functional; settings: KCTC 1621, 20 h
[4] = Solubility of the compound; format: physicochemical
Escherichia coli = assay: Antibacterial activity against Escherichia coli after 20 hrs by twofold serial broth dilution method; format: functional
[5] = target: T1, 3-oxoacyl-[acyl-carrier-protein] synthase 3 (Escherichia coli) (UniProt C3TDZ2); assay: Binding affinity to Escherichia coli KAS3 expressed in Escherichia coli BL21 (DE3) by NMR analysis
T1 sequence (whole entry): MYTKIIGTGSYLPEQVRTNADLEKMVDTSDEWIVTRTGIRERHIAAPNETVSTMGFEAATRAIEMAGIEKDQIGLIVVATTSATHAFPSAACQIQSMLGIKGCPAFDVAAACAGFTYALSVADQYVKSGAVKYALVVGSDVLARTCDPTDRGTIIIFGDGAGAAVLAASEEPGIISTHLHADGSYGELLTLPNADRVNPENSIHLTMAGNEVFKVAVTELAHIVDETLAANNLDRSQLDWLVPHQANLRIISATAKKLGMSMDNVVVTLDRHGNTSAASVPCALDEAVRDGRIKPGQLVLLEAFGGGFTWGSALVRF

Enterococcus faecalis [6] = assay: Antibacterial activity against vancomycin-resistant Enterococcus faecalis clinical isolates after 20 hrs by twofold serial broth dilution method; format: functional
[7] = Cytotoxicity against human HaCaT cells assessed as cell survival at 16 uM after 24 hrs by MTT assay; format: cell-based; settings: read-out: Survival
HaCaT [8] = assay: Cytotoxicity against human HaCaT cells assessed as cell morphology at 100 uM after 24 hrs by phase contrast microscopy; format: cell-based
HaCaT [9] = assay: Cytotoxicity against human HaCaT cells assessed as cell survival at 100 uM after 24 hrs by MTT assay; format: cell-based

| Compound | MIC (Staphylococcus aureus [1]) [µM] | MIC (Enterococcus faecalis [2]) [µM] | MIC (Staphylococcus aureus [3]) [µM] | solubility [4] | MIC (Escherichia coli) [µM] | K [5] | MIC (Enterococcus faecalis [6]) [µM] | viability at 24 h, 16 µM [7] [%] | Activity (HaCaT [8]) | Activity (HaCaT [9]) |
| --- | --- | --- | --- | --- | --- | --- | --- | --- | --- | --- |
| O=c1c(O)c(-c2ccccc2)oc2ccc(O)cc12 | 16 (≈ 4.07 µg/mL) | 128 (≈ 32.5 µg/mL) | 16 (≈ 4.07 µg/mL) | Insoluble | > 1020 | 1.32 ×10⁴ /M | 256 (≈ 65.1 µg/mL) | 90 |  |  |
| COc1ccc(-c2coc3cc(O[C@@H]4O[C@H](CO)[C@@H](O)[C@@H](O)[C@@H]4O)cc(O)c3c2=O)cc1 | > 1020 | > 1020 | > 1020 |  | > 1020 | 5.6 ×10⁶ /M | > 1020 |  |  |  |
| O=C(CCc1ccc(O)cc1)c1c(O)cc(O)cc1O [PHLORETIN] | 16 (≈ 4.39 µg/mL) | 128 (≈ 35.1 µg/mL) | 32 (≈ 8.78 µg/mL) |  | 128 (≈ 35.1 µg/mL) | 2.38 ×10⁷ /M | 128 (≈ 35.1 µg/mL) |  | Not Active | Not Active |
| C=C/C(C)=C/[C@@]1(C)SC(=O)C(C)=C1O [THIOLACTOMYCIN] | 128 (≈ 26.9 µg/mL) | 256 (≈ 53.8 µg/mL) | 256 (≈ 53.8 µg/mL) |  | 128 (≈ 26.9 µg/mL) | 1.18 ×10⁴ /M | 128 (≈ 26.9 µg/mL) |  |  |  |
| O=c1c(O)c(-c2ccc(O)cc2)oc2ccc(O)cc12 | > 1020 | > 1020 | > 1020 |  | > 1020 | 6.22 ×10⁶ /M | > 1020 |  |  |  |
